Reference: article PMC12037037 (Proceedings of the National Academy of Sciences of the …, 2025)
“Also recorded” adds a separate entry of the source.

What was measured:
[1] = biological target: T1, 5-HT2A receptors (Gq activation) (Homo sapiens, UniProt P28223); test: BRET-based assay of Gq activation; type: cell-based
T1 construct: expressed in transfected cells; host or cells: HEK293T (transient)
Procedure: IP1 Assay (5-HT2AR and 5-HT2CR). The 5-HT2AR and 5-HT2CR IPOne HTRF assays were performed at Epics
Therapeutics S.A. (Belgium, FAST-0505I) using conventional methods. Experiments were performed using the free bases
of (+)-JRT and (–)-JRT. Briefly, CHO-K1 cells expressing human recombinant 5-HT2AR grown to mid-log phase in culture
media without antibiotics were detached with PBS-EDTA, centrifuged, and resuspended in medium without antibiotics
buffer. Then, 20,000 cells were distributed in a 96-well plate and incubated overnight at 37 °C with 5% CO2. For agonist
were added to each well. The plate was incubated for 60 min at 37 °C with 5% CO2. After addition of the lysis buffer containing
IP1-d2 and anti-IP1 cryptate detection reagents, plates were incubated for 1 h at room temperature and fluorescence ratios
were measured according to the manufacturer’s specifications using the HTRF kit.
IP1 Assay (5-HT2BR). The 5-HT2BR IP1 assays were performed at Eurofins Cerep SA (Celle l’Evescault, France) using
conventional methods (Catalog #3344) as described previously.14 Experiments were performed using the free bases of (+)-
JRT and (–)-JRT. Briefly, CHO cells transfected with the human 5-HT2B receptor were suspended in a buffer containing
10 mM Hepes/NaOH (pH 7.4), 4.2 mM KCl, 146 mM NaCl, 1 mM CaCl2, 0.5 mM MgCl2, 5.5 mM glucose and 50 mM LiCl.
Then the cells were distributed in microplates at a density of ~2.104 cells/well and incubated for 30 min at 37°C in the
presence of buffer (basal control), test compound, or reference agonist. For stimulated control measurement, separate
Following incubation, the cells are lysed and the fluorescence acceptor (D2-
labeled IP1) and fluorescence donor (anti-IP1 antibody labeled with europium cryptate) were added. After 60 min at room
temperature, the fluorescence transfer was measured at lex = 337 nm and lem = 620 and 665 nm using a microplate
reader (Envision, Perkin Elmer). The IP1 concentration was determined by dividing the signal measured at 665 nm by that
measured at 620 nm (ratio).
BRET-Based GPCR Assays. […]

[2] = biological target: T2, U2OS cells expressing 5-HT2ARs (β-arrestin recruitment) (Homo sapiens, UniProt P28223); test: PathHunter β-arrestin agonist assay; type: cell-based; conditions: free base
T2 construct: host or cells: U2OS
Procedure: (D) The PathHunter® β-arrestin assay was used to
b-Arrestin Activation (PathHunter®). The 5-HT2AR PathHunter® b-arrestin agonist assay was performed at Eurofins
DiscoverX (Frement, CA, Catalog # 86-0001P-2090AG).
The PathHunter® β-arrestin assay monitors the activation of a GPCR in a homogenous, non-imaging assay format
using a technology developed by DiscoverX called Enzyme Fragment Complementation (EFC) with β-galactosidase (β-Gal)
as the functonal reporter.
PK and EA are then expressed as fusion proteins in U2OS cells,
with PK fused to the GPCR of interest, and EA fused to b-arrestin. When the target GPCR is activated and β-arrestin is

C57BL/6J mice = test: Sucrose preference test (SPT) after chronic CORT; type: in vivo; conditions: 1 mg/kg IP, two injections 48 h apart, CORT-sensitive mice; main effect of treatment P = 0.0364
Procedure: remained housed in groups of three for the remainder of the study. All rats were acclimated to the colony room for up to one week prior to dosing. During the period of acclimation, rats were examined and handled daily, and weighed to assure adequate health and suitability. The room temperature was maintained between 20 °C and 23 °C with a relative humidity of 30%–70%. Lab Rodent Diet 5001 (W.F. Fisher, Cat # 11015) and water were provided ad libitum. Animals were randomly assigned across treatment groups. All testing was performed during the light phase of the light/dark cycle. Behavioral testing was conducted according to established protocols approved by the IACUC committee and PGI Standard Operation Procedures (SOP). […] All animals were carefully monitored to ensure their safety in the swim test and any animal unable to maintain a posture with its nose above water was immediately removed from the water and not used further in the study. […] This test lasted for 5 min and was video recorded. A blinded experimenter manually scored the videos for swimming, climbing, and immobility behavior. Scoring of the forced swim test was performed by trained technicians using a time sampling technique in which the animal in the video recorded test was viewed every 5 seconds and the behavior observed was noted (e.g., immobile, swimming, or climbing). […]

[3] = test system: cultured rat embryonic cortical neurons; test: Neuritogenesis assay (Sholl analysis, DIV6); type: cell-based
Procedure: Figure S8. […] (A) Sholl analysis of embryonic day 18 (E18) rat cortical
(D) Area under the curves of the Sholl plots
N values are shown within the bars. VEH =
Neuritogenesis Assays. Neuritogenesis Assays were performed as previously described (17) with slight modifications.
Briefly, 96 well plates were coated with poly-D-lysine and approximately 15,000 cells/well. Neurons were treated after 3 days in vitro (DIV3) for 1 h followed by a complete media change. Cells were incubated for an additional 3 days before fixing and staining for MAP2 on DIV6. Neurites were visualized using a chicken anti-MAP2 antibody (1:10,000; EnCor, CPCA-MAP2) and an anti-chicken IgG secondary antibody conjugated to Alexa Fluor 488 (Life Technologies, 1:500). Plates were imaged in DPBS on a Thermo Scientific CellInsight CX7 High-Content Screening Platform at 20x (N.A. = 0.45). Images were analyzed using the Simple Neurite Tracer and Sholl analysis plug-ins for ImageJ Fiji (version 1.51N). Sholl analysis circle radii = 2 µm increments. All images were taken and analyzed by an experimenter blinded to treatment conditions.

T1 sequence (P28223 whole entry): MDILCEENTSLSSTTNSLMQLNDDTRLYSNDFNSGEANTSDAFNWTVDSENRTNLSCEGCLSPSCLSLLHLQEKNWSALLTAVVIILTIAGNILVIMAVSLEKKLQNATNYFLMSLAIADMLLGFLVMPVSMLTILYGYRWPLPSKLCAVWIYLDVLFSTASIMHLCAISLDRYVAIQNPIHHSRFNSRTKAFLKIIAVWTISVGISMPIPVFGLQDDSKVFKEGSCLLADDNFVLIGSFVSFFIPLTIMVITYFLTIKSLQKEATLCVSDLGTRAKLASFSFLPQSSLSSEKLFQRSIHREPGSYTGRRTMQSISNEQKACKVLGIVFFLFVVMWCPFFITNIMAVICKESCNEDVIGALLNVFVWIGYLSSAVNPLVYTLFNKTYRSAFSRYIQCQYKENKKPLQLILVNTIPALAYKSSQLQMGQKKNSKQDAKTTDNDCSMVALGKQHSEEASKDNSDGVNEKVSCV
T2 sequence (P28223 whole entry): as above

CCN(CC)C(=O)[C@@H]1C=C2c3cccc4ccn(c34)C[C@H]2N(C)C1 [(+)-JRT]
EC50 ([1]; Gq Activation: EC50, agonist mode): 0.4 nM
EC50 ([1]; Gq Activation: EC50, antagonist mode, cotreated with 10 μM serotonin (5-HT + compound)): 931 nM
Emax ([1]; read-out: Gq Activation: EMax): 33%
β-arrestin recruitment through 5-HT2A receptor activation [2]: potent partial agonist; also recorded: not able to recruit β-arrestin through 5-HT2A receptor activation with high efficacy
Effect on CORT-induced anhedonia (sucrose preference) (C57BL/6J mice): rescued CORT-induced anhedonia
Nmax (maximum number of crossings of the Sholl plots) ([3]; 1 μM, DIV6, compared to vehicle control): increased Nmax values to a greater extent than CLZ
Area under the curves of the Sholl plots (Figure S8D) ([3]; 1 µM, DIV6, VEH 1.000 ± 0.05010, mean ± SEM): 1.193 ± 0.05057
Total branches (Figure S8C) ([3]; 1 µM, DIV6, VEH 2.325 ± 0.2641, mean ± SEM): 4.121 ± 0.3838
Number of primary dendrites (Figure S8B) ([3]; 1 µM, DIV6, VEH 6.275 ± 0.2292, mean ± SEM): 8.152 ± 0.2824
